Measured values reported in patent US8642592B2, “Oxo-heterocyclically substituted alkyl carboxylic acids and use thereof” (Bayer Intellectual Property GmbH, priority 2009, dated 2014).

Assays:
Heme-free sGC = target: T1, Heme-free sGC (Rattus norvegicus, UniProt P20595); assay: Stimulation of recombinant soluble guanylate cyclase in vitro, heme-free enzyme; type: biochemical
T1 construct: made in house; host or cells: baculovirus/Sf9 insect cells
T1 sequence (P20595 1-619): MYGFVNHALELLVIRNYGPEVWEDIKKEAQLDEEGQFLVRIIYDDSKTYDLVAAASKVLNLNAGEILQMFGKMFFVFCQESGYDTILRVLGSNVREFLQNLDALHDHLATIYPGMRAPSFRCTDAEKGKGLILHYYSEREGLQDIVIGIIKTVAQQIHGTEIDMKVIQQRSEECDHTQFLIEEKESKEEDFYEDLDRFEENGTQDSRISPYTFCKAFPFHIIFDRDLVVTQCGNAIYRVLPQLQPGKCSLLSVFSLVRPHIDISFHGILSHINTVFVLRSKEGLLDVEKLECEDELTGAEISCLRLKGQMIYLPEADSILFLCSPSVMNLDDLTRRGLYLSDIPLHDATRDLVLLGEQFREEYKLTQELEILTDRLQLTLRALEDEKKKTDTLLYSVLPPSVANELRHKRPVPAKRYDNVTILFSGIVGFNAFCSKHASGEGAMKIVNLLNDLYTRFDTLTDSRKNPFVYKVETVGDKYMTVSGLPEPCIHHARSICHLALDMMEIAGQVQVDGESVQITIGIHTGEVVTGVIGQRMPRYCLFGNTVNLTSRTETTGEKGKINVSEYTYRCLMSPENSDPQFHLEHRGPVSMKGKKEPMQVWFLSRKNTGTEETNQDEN
T1 sequence (P19686 1-690 partner): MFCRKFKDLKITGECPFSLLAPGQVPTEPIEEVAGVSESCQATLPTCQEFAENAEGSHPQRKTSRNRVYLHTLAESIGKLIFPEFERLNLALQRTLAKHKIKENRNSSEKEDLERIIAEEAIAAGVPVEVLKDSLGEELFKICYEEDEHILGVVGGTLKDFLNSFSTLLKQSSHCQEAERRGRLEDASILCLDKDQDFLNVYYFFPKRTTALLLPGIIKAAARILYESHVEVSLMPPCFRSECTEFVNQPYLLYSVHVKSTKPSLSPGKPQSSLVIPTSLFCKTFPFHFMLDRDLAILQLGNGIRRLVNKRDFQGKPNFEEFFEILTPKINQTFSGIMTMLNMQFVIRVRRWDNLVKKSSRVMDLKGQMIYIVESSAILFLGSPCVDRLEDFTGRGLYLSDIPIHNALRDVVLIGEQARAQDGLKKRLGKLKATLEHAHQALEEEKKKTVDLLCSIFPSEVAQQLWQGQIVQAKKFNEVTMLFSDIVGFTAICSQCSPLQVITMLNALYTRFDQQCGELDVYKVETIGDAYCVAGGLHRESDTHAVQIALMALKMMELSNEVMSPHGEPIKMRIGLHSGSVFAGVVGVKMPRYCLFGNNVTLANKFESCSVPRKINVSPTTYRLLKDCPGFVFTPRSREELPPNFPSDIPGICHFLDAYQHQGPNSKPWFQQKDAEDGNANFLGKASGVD
Procedure: Investigations on the stimulation of recombinant soluble guanylate cyclase (sGC) by the compounds according to the invention with and without sodium nitroprusside, and with and without the heme-dependent sGC inhibitor 1H-1,2,4-oxadiazolo-(4,3a)-quinoxalin-1-one (ODQ) are carried out by the method described in detail in the following reference: M. Hoenicka, E. M. Becker, H. Apeler, T. Sirichoke, H. Schroeder, R. Gerzer and J.-P. Stasch, “Purified soluble guanylyl cyclase expressed in a baculovirus/Sf9 system: Stimulation by YC-1, nitric oxide, and carbon oxide”, J. Mol. Med. 77 (1999), 14-23. The heme-free guanylate cyclase is obtained by adding Tween 20 to the sample buffer (0.5% in the final concentration).
(§1) The activation of sGC by a test substance is reported as n-fold stimulation of the basal activity.

Heme-containing sGC = target: T2, Heme-containing sGC (Rattus norvegicus, UniProt P20595); assay: Stimulation of recombinant soluble guanylate cyclase in vitro, heme-containing enzyme; type: biochemical
T2 construct: made in house; host or cells: baculovirus/Sf9 insect cells
T2 sequence (P20595 1-619): T1 sequence (P20595 1-619)
T2 sequence (P19686 1-690 partner): T1 sequence (P19686 1-690 partner)
From the text: Hoenicka, E. M. Becker, H. Apeler, T. Sirichoke, H. Schroeder, R. Gerzer and J.-P. Stasch, “Purified soluble guanylyl cyclase expressed in a baculovirus/Sf9 system: Stimulation by YC-1, nitric oxide, and carbon oxide”, J. Mol. Med. 77 (1999), 14-23. The heme-free guanylate cyclase is obtained by adding Tween 20 to the sample buffer (0.5% in the final concentration).
as §1

saphenous artery = assay: Vasorelaxant effect in vitro (phenylephrine-contracted artery rings); set-up: species or system Rabbits; conditions: Oryctolagus cuniculus; concentration reducing phenylephrine-induced contraction of rabbit saphenous artery rings by 50%
Procedure: Rabbits are anesthetized and sacrificed by intravenous injection of thiopental sodium (about 50 mg/kg) and exsanguinated. The saphenous artery is removed and divided into rings 3 mm wide. The rings are mounted singly on in each case a pair of triangular hooks open at the end and made of 0.3 mm-thick special wire (Remanium®). Each ring is placed under an initial tension in 5 ml organ baths with Krebs-Henseleit solution which is at 37° C., is gassed with carbogen and has the following composition: NaCl 119 mM; KCl 4.8 mM; CaCl2×2 H2O 1 mM; MgSO4×7 H2O 1.4 mM; KH2PO4 1.2 mM; NaHCO3 25 mM; glucose 10 mM; bovine serum albumin 0.001%. The force of contraction is detected with Statham UC2 cells, amplified and digitized via A/D converters (DAS-1802 HC, Keithley Instruments, Munich) and recorded in parallel on chart recorders. Contractions are induced by addition of phenylephrine.
After several (generally 4) control cycles, the substance to be investigated is added in each further run in increasing dosage, and the level of the contraction achieved under the influence of the test substance is compared with the level of the contraction reached in the last preceding run. The concentration necessary to reduce the contraction reached in the preceding control by 50% is calculated from this (IC50). The standard application volume is 5 μl. The proportion of DMSO in the bath solution corresponds to 0.1%.

sGC = target: T3, sGC (Rattus norvegicus, UniProt P20595); assay: sGC-activating activity in the CHO reporter cell in vitro; type: cell-based
T3 construct: expressed in transfected cells; host or cells: CHO reporter cell line
T3 sequence (P20595 1-619): T1 sequence (P20595 1-619)
T3 sequence (P19686 1-690 partner): T1 sequence (P19686 1-690 partner)
Procedure: The cellular action of the compounds according to the invention is determined at a recombinant guanylate cyclase reporter cell line, as described in F. Wunder et al., Anal. Biochem. 339, 104-112 (2005).

O=C(NCCCCC1(C(=O)O)CC1)C(c1ccc(CN2N=C(c3ccccc3)OCC2=O)cc1)C1CCCC1 (single isomer, unassigned; (+)) [Example 1, (+)-1-(4-{[2-cyclopentyl-2-{4-[(5-oxo-2-phenyl-5,6-dihydro-4H-1,3,4-oxadiazin-4-yl)methyl]phenyl}-acetyl]amino}butyl)cyclopropanecarboxylic acid]
Stimulation (n-fold) of heme-free sGC, Basal (Heme-free sGC; 0.1 μM Example 1): 1.4 n-fold
Stimulation (n-fold) of heme-free sGC, Basal (Heme-free sGC; 1 μM Example 1): 1.7 n-fold
Stimulation (n-fold) of heme-free sGC, Basal (Heme-free sGC; 10 μM Example 1): 8.4 n-fold
Stimulation (n-fold) of heme-free sGC, Basal (Heme-free sGC; 100 μM Example 1): 111.8 n-fold
Stimulation (n-fold) of heme-containing sGC, Basal (Heme-containing sGC; 0.1 μM Example 1): 1.5 n-fold
Stimulation (n-fold) of heme-containing sGC, +0.1 μM DEA/NO (Heme-containing sGC; 0.1 μM Example 1 + 0.1 μM DEA/NO): 21.9 n-fold
Stimulation (n-fold) of heme-containing sGC, +10 μM ODQ (Heme-containing sGC; 0.1 μM Example 1 + 10 μM ODQ): 3.0 n-fold
Stimulation (n-fold) of heme-containing sGC, Basal (Heme-containing sGC; 1 μM Example 1): 1.4 n-fold
Stimulation (n-fold) of heme-containing sGC, +0.1 μM DEA/NO (Heme-containing sGC; 1 μM Example 1 + 0.1 μM DEA/NO): 19.3 n-fold
Stimulation (n-fold) of heme-containing sGC, +10 μM ODQ (Heme-containing sGC; 1 μM Example 1 + 10 μM ODQ): 3.7 n-fold
Stimulation (n-fold) of heme-containing sGC, Basal (Heme-containing sGC; 10 μM Example 1): 2.6 n-fold
Stimulation (n-fold) of heme-containing sGC, +0.1 μM DEA/NO (Heme-containing sGC; 10 μM Example 1 + 0.1 μM DEA/NO): 20.0 n-fold
Stimulation (n-fold) of heme-containing sGC, +10 μM ODQ (Heme-containing sGC; 10 μM Example 1 + 10 μM ODQ): 10.3 n-fold
Stimulation (n-fold) of heme-containing sGC, Basal (Heme-containing sGC; 100 μM Example 1): 14.0 n-fold
Stimulation (n-fold) of heme-containing sGC, +0.1 μM DEA/NO (Heme-containing sGC; 100 μM Example 1 + 0.1 μM DEA/NO): 37.8 n-fold
Stimulation (n-fold) of heme-containing sGC, +10 μM ODQ (Heme-containing sGC; 100 μM Example 1 + 10 μM ODQ): 46.6 n-fold
Effect of combination with the NO donor DEA/NO on sGC stimulation (Heme-containing sGC; combination with DEA/NO, heme-containing sGC): no synergistic effect
Effect of the heme-dependent sGC inhibitor ODQ on sGC activation (Heme-containing sGC; with ODQ, heme-containing sGC, effect is in fact increased): not blocked
IC50 (saphenous artery): 284 nM
MEC (minimum effective concentration), sGC-activating activity in the CHO reporter cell (sGC): 10 nM
